B1: CXCL11: an ACKR3 and CXCR3 agonist (protein, UniProt O14625 22-94, looked up)
C-X-C motif chemokine 11: FPMFKRGRCLCIGPGVKAVKVADIEKASIMYPSNNCDKIEVIITLKENKGQRCLNPKSKQARLIIKKVERKNF

Experiments:
hPPAEC [1] = assay: In vitro vascular permeability assay (FITC-dextran), hPPAEC monolayer, CXCR4/ACKR3 ligands without thrombin; format: cell-based, human; details: 50 nM ligand for 10 min, then FITC-dextran; no thrombin
Method: FIGS. 1A-1B show expression of CXCR4, ACKR3 and CXCR4:ACKR3 heteromers on hPPAEC and effects of CXCR4/ACKR3 ligands on hPPAEC monolayer permeability. (A) Detection of CXCR4, ACKR3 and CXCR4:ACKR3 heteromers on hPPAEC by PLA. Typical PLA images for the detection of individual receptors and CXCR4:ACKR3 heteromers. Images show merged PLA/40,6-diamidino-2-phenylindole dihydrochloride (DAPI) signals. Ctrl: Omission of one secondary antibody. (B) hPPAEC were grown to a confluent monolayer on collagen-coated permeable membranes. Cells were then exposed to vehicle or 50 nM of CXCR4/ACKR3 ligands for 10 minutes, as indicated, followed by the addition of FITC-dextran. Endothelial permeability was assessed by measuring the amount of FITC-dextran that permeated through the cell monolayer. N=3 in quadruplicate. No cells: 100% permeability, open squares. RFU: Relative fluorescence units. *: p<0.05 vs. vehicle (2-way ANOVA/Bonferroni's multiple comparison post hoc test).
Cells and cell lines—Human primary pulmonary artery endothelial cells (hPPAEC) (ATCC, PCS-100-022) and the human lung microvascular endothelial cell line HULEC-5a (ATCC, CRL-3244) were cultured in vascular cell basal medium (ATCC, PCS-100-030) with endothelial cell growth kit-VEGF (ATCC, PCS-100-041). The HTLA cell line, a HEK293 cell line stably expressing a tTA-dependent luciferase reporter and a β-arrestin2-TEV fusion gene, was generously provided by the laboratory of Dr. Bryan Roth and maintained in high glucose Dulbecco's Modified Eagle's Medium supplemented with 10% (vol/vol) FBS, 1× non-essential amino acids, 100 U/mL penicillin, 100 μg/mL streptomycin, 50 μg/mL hygromycin B, and 2 μg/mL puromycin. All cells were cultured at 37° C., 5% CO2 in a humidified atmosphere.
(§1) In vitro vascular permeability assays—Permeability assays were obtained from Millipore (ECM642) and performed as per manufacturer's instructions. In brief, 96-well collagen-coated permeability assay plates were pre-hydrated for 15 min, 5×10^5 cells were seeded on each well and grown to a confluent monolayer for 48 hours. Fluorescein isothiocyanate (FITC)-dextran (20 μg/mL) was then added on top of the monolayer and the amount of FITC-dextran that permeated through the monolayer was quantified by measuring fluorescence in a Synergy 2 Multi-mode Microplate Reader (BioTek, Winooski, Vt.) at various time points over a 255 min time period.

hPPAEC [2] = assay: Effects of CXCR4 agonists / CXCL12 variants on thrombin-induced impairment of hPPAEC monolayer permeability; format: cell-based, human
Method: FIGS. 3A-3D show effects of CXCL12 and ubiquitin on thrombin-induced impairment of hPPAEC monolayer permeability. hPPAEC were grown to a confluent monolayer on collagen-coated permeable membranes. (A) hPPAEC were pre-treated with vehicle, 100 nM of CXCL12 or ubiquitin for 10 minutes, as indicated, and then exposed to thrombin (50 nM), followed by the addition of FITC-dextran. Vehicle: no thrombin. Endothelial permeability was assessed by measuring the amount of FITC-dextran that permeated through the cell monolayer. No cells: 100% permeability (open circles). RFU: Relative fluorescence units. N=3 in quadruplicate. *: p<0.05 vs. vehicle/thrombin. (B-D) hPPAEC were exposed to 35 nM of thrombin or vehicle. After 10 min, thrombin-exposed cells were treated with vehicle, CXCL12 (50 nM) and/or AMD3100 (10 μM) (B), with vehicle, ubiquitin (50 nM) and/or AMD3100 (10 μM) (C) or with various concentrations of ubiquitin (D) followed by the addition of FITC-dextran. The experimental conditions are indicated. Endothelial permeability was assessed by measuring the amount of FITC-dextran that permeated through the cell monolayer. RFU: Relative fluorescence units. N=3 in quadruplicate. *: p<0.05 vs. thrombin/vehicle (2-way ANOVA/Bonferroni's multiple comparison post hoc test).
(§2) FIGS. 7A-7D show dose-dependent effects of CXCL12α/β, CXCL12 (3-68) and CXCL12 mutants K27A/R41A/R47A, R47E and S-S4V on thrombin-induced impairment of hPPAEC monolayer permeability. hPPAEC cells were grown to a confluent monolayer on collagen-coated permeable membranes. hPPAEC were then exposed to 35 nM of thrombin. After 10 min, thrombin-exposed cells were treated with vehicle or 50 nM (A), 5 nM (B), 0.5 nM (C) or 0.05 nM (D) of the various proteins, as indicated. In (D) 5 nM CXCL12a was used as a positive control. N=3 in quadruplicate.
as §2, with “8A-8D” for “7A-7D”, “CXCL12α, CXCL121” for “CXCL12α/β, CXCL12 (3-68)”, “CXCL122” for “CXCL12 mutants K27A/R41A/R47A, R47E and S-S4V”, “CXCL12α” for “CXCL12a”
FIGS. 9A-9B show inhibition of thrombin-induced hyper-permeability of hPPAEC by CXCL12/CXCL12 variants. % inhibition: % inhibition of thrombin-induced hyperpermeability. Data from FIGS. 7 and 8 at t=255 min. N=3 in quadruplicate. *: p<0.05 vs. CXCL12a (2-way ANOVA/Bonferroni's multiple comparison post hoc test).
as §1

CXCR4 = biological target: T1, CXCR4 (Homo sapiens, UniProt P61073); assay: Presto-Tango β-arrestin 2 recruitment assay for CXCR4; format: cell-based
T1 construct: host or cells: HTLA cells (HEK293 line stably expressing a tTA-dependent luciferase reporter and a β-arrestin2-TEV fusion gene)
Method: FIGS. 6A-6F show Presto-Tango β-arrestin 2 recruitment assays for CXCR4 (A-C) and ACKR3 (D-F). RLU %: % of the luminescence signal for 1 μM CXCL12α. N=9 for CXCL12a and n=3 for all other proteins.
Presto-Tango β-arrestin 2 recruitment assay—The PRESTO-Tango (parallel receptorome expression and screening via transcriptional out-put, with transcriptional activation following arrestin translocation) assay was performed as recently described. The Tango plasmids were a gift from Dr. Bryan Roth (all from Addgene). HTLA cells (2.5×10^5/well) were seeded in a 6-well plate and transfected with 1.5 μg of the Tango plasmids using Lipofectamine 3000 (ThermoScientific). The following day, transfected HTLA cells (1×10^5 cells/well) were plated onto Poly-L-Lysine pre-coated 96-well micro-plates and allowed to attach to the plate surface for at least 4 hours prior to treatment. Proteins used for treatment were prepared in twice the final concentration in culture media, added at a 1:1 vol/vol ratio and incubated overnight at 37° C., 5% CO2 in a humidified environment. The following morning, media was removed from cell culture plates and replaced with a 100 μL 1:5 mixture of Bright-Glo (Promega) and 1×HBSS, 20 mM HEPES solution. Plates were then incubated at room temperature before measuring luminescence on a Biotek Synergy II plate reader.

[3] = tested on: animal model of acute respiratory distress syndrome (ARDS); assay: Animal model of ARDS: lung ischemia reperfusion injury plus hemorrhage (P:F ratio, lung injury score); format: in vivo, Sprague-Dawley rats; details: for development of ARDS (P:F ratio): 0.14 μmol/kg i.v. within 10 min after reperfusion, until t=300 min; for histological signs of lung injury, injured lung (lung injury score): H&E sections, vs. vehicle
Method: Animals underwent 70 min of […] lung ischemia for 70 min plus hemorrhage to a MAP of 40 mmHg for the last 30 min of ischemia, followed by fluid resuscitation to a MAP of 60 mmHg until t=300 min. Arrow: drug injection. Dashed lines indicate the P:F ratio (mmHg) threshold values for the diagnosis of mild, moderate and severe ARDS. Vehicle: n=5. CXCL12: n=3. CXCL12: n=4. CXCL12-LM: n=3, CXCL12-LD: n=4. CXCL12 K27A/R41A/R47A: n=3. LI+HEM: lung ischemia reperfusion injury plus hemorrhage. Data are mean±SEM. *: p<0.05 vs. vehicle (2-way ANOVA/Dunnett's multiple comparisons test).
FIGS. 12A-12C show lung histology after treatment with CXCL12 and engineered CXCR4 agonists A. Lung specimens were placed in formalin fixative solution and were then embedded in paraffin wax, sliced into 5 μm sections and stained with H&E. Representative images from H&E stained lung sections from animals after vehicle (left) and CXCL12 ([…], right treatment. B/C. Lung injury scores (B. uninjured (left) lung; C. injured (right) lung). Data are median±interquartile ranges. Data were analyzed with the Kruskal Wallis test with Dunn's multiple comparisons test. The level of statistical significance (p) vs. ctrl. (vehicle treatment) indicated.
We tested therapeutic efficacy of wild-type CXCL12, CXXL12-locked dimer (LD), CXCL12-locked monomer (LM) and the triple mutant CXCL12 K27A/R41A/R47A in an animal model of acute respiratory distress syndrome (ARDS) (FIG. 11). All drugs were injected in a dose of 0.14 μmol/kg. Male Sprague-Dawley rats were anesthetized, orotracheally intubated, instrumented with arterial/venous catheters, and mechanically ventilated (PEEP 2 mmHg, FiO2 1.0). After a right lateral thoracotomy, a suture was tied around the hilum of the right lung. Animals underwent 70 min of right lung ischemia plus hemorrhage to a mean arterial blood pressure (MAP) of 40 mmHg for the last 30 min of lung ischemia. At t=70 min, the suture was removed, animals were ventilated with FiO2 1.0, PEEP 5 mmHg and resuscitated with crystalloids to a MAP of 60 mmHg until t=300 min. Vehicle and drugs were injected i.v. within 10 min after reperfusion.
We further evaluated histomorphology of the lungs from animals treated with vehicle, wild-type CXCL12, CXCL12-LD and CXCXL12-LM utilizing a standardized lung injury score. Lung slides stained with hematoxylin and eosin were examined under a light microscope by 4 investigators blinded to the identity of the specimens. The lung injury score was assessed as previously described/. In brief each investigator rendered a score of 0 (no damage) to 4+(maximal damage) based on an injury grading scale composed of six criteria. The slides were assessed for the extent of alveolar congestion, hemorrhage and edema, as well as alveolar and vessel wall PMN infiltration and alveolar wall thickness. […] Lung injury scores of the uninjured and injured lungs from animals treated with vehicle, wild-type CXCL12, CXCL12-LD and CXCXL12-LM are shown in FIGS. […], respectively.

T1 sequence (P61073 whole entry, the tested form may be a part): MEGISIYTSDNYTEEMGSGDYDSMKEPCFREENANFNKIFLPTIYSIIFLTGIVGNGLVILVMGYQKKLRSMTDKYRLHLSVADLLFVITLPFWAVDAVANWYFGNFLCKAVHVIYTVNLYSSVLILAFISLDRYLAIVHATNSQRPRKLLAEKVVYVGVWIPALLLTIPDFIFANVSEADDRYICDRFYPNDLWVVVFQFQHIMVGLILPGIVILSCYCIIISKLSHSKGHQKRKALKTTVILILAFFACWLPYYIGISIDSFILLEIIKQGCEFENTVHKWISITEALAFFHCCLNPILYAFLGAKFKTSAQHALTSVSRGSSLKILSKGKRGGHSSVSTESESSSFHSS

| Molecule | effect on hPPAEC monolayer permeability (hPPAEC [1]) | effect on thrombin-induced permeability of hPPAEC when added after thrombin (hPPAEC [2]; thrombin 35 nM, after 10 min CXCL12 or ubiquitin 50 nM, AMD3100 10 μM) | antagonism of the CXCL12 effect on thrombin-induced permeability (hPPAEC [2]; thrombin 35 nM, CXCL12 50 nM plus AMD3100 10 μM) | potency (EC50) to recruit β-arrestin 2 to CXCR4, compared with CXCL12α (CXCR4) | development of ARDS (P:F ratio) [3] | histological signs of lung injury, injured lung (lung injury score) [3] | potency to attenuate thrombin-induced permeability of hPPAEC (in words) (hPPAEC [2]) | concentration at which thrombin-mediated hPPAEC barrier impairment was affected (hPPAEC [2]; tested 0.05-50 nM, t=255 min) [nM] |
| --- | --- | --- | --- | --- | --- | --- | --- | --- |
| c1cc(CN2CCCNCCNCCCNCC2)ccc1CN1CCCNCCNCCCNCC1 [AMD3100] | did not affect hPPAEC permeability | did not affect thrombin-mediated hyper-permeability of hPPAEC | could be antagonized | – | – | – | – | – |
| CXCL121: constitutively monomeric CXCL12 variant with L55C and I58C substitutions (SEQ ID NO:2) | – | – | – | no statistically significant differences | prevented development of ARDS | significantly reduced | – | – |
| CXCL122: constitutively dimeric, disulfide-locked CXCL12 variant containing L36C/A65C mutations (SEQ ID NO:3) | – | – | – | no statistically significant differences | prevented development of ARDS | significantly reduced | significantly reduced potency | 50 |
| B1 | did not affect hPPAEC permeability | – | – | – | – | – | – | – |
